These results are taken from PubChem BioAssay (NCI).

Among the test systems are HOP-62 NSCLC; CCRF-CEM leukemia; RXF 393 renal; K-562 leukemia; SR leukemia; SW-620 colon; MCF7 breast; SF-539 CNS; KM12 colon; MALME-3M melanoma.
Assay in all cases: NCI tumour cell line growth inhibition, 48 h

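In this assay, cells in 96-well plates receive the compound at five concentrations for 48 hours. Endpoints are linearly interpolated between the surrounding concentrations. Definition used: TGI = concentration required for complete inhibition of growth.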

Turning to `CNC(=O)N(CCC#N)[C@H]1CCCC[C@@H]1N(C(=O)NC)c1ccccc1`, the TGI with HOP-62 NSCLC, in the assay with CCRF-CEM leukemia, with RXF 393 renal, in the assay with K-562 leukemia, in the assay with SR leukemia and with SW-620 colon was > 100 µM each time. Moreover, the TGI in the assay with MCF7 breast, in the assay on SF-539 CNS, in the assay on KM12 colon and with MALME-3M melanoma was > 100 µM in each case.

As for `Brc1ccc2c(-c3csc(-c4c[nH]c5ccc(Br)cc45)n3)c[nH]c2c1`, the TGI in the assay with HOP-62 NSCLC is 27.1 µM; in the assay with CCRF-CEM leukemia, > 29.2 µM; in the assay with RXF 393 renal, 9.55 µM; in the assay with K-562 leukemia, > 22.2 µM; with SR leukemia, > 100 µM; with SW-620 colon, 28.3 µM. The TGI with MCF7 breast is > 100 µM; with SF-539 CNS, 15.1 µM; in the assay with KM12 colon, 6.4 µM; in the assay on MALME-3M melanoma, 19.3 µM.

Consider `CCNC(=O)C1CCCN1C(=O)C(CCCN=C(N)N)NC(=O)C(CC(C)C)NC(=O)C(Cc1c[nH]c2ccccc12)NC(=O)C(Cc1ccc(O)cc1)NC(=O)C(CO)NC(=O)C(Cc1c[nH]c2ccccc12)NC(=O)C(Cc1cnc[nH]1)NC(=O)C1CCC(=O)N1` (stereo not given), for which the TGI with HOP-62 NSCLC, with CCRF-CEM leukemia, with RXF 393 renal, with K-562 leukemia, with SR leukemia and in the assay on SW-620 colon was > 100 µM throughout. The TGI in the assay with MCF7 breast, in the assay with SF-539 CNS, with KM12 colon and in the assay with MALME-3M melanoma was > 100 µM each time.

Turning to `CCOn1c(C2(CC3CCN(C(=O)c4ccccc4)CC3)OCCO2)cc2ccccc21`, the TGI was determined as 28.3 µM in the assay with HOP-62 NSCLC; 31.7 µM in the assay with CCRF-CEM leukemia; 31.2 µM with RXF 393 renal; 38.2 µM in the assay with K-562 leukemia; 22.5 µM with SR leukemia; 35.7 µM in the assay on SW-620 colon. For the same molecule, the TGI was determined as 30 µM in the assay on MCF7 breast, 68.1 µM in the assay on SF-539 CNS, 30.9 µM with KM12 colon and 33.2 µM in the assay on MALME-3M melanoma.

As to `CC(C)(C)c1cc(/C=C(\C#N)C(=O)NCCO)cc(C(C)(C)C)c1O`, the TGI in the assay with HOP-62 NSCLC was found to be 49.6 µM; with CCRF-CEM leukemia it was 46.3 µM; in the assay with RXF 393 renal, 57.6 µM; in the assay on K-562 leukemia it was 86.7 µM; in the assay on SR leukemia, 49.4 µM; in the assay with SW-620 colon it was 97 µM. Also, the TGI worked out at 93.5 µM with MCF7 breast, 38.3 µM in the assay with SF-539 CNS, 52.7 µM in the assay with KM12 colon and 61.9 µM with MALME-3M melanoma.

As to `Cc1cn([C@@H]2C[C@H]2CO)c(=O)[nH]c1=O`, the TGI in the assay with HOP-62 NSCLC, with CCRF-CEM leukemia, in the assay on RXF 393 renal, with K-562 leukemia, in the assay on SR leukemia and in the assay on SW-620 colon was > 100 µM each time. Further, the TGI in the assay on MCF7 breast, in the assay with SF-539 CNS, in the assay on KM12 colon and with MALME-3M melanoma was > 100 µM throughout.

Consider `CCOC(=O)C(NC(=O)CC(C)C)(N1CCN(c2cc3c(cc2F)c(=O)c(C(=O)O)cn3C2CC2)CC1)C(F)(F)F` (stereo not given), for which the TGI was > 100 µM in the assay with HOP-62 NSCLC; 14 µM in the assay on CCRF-CEM leukemia; 35.8 µM with RXF 393 renal; 42 µM in the assay with K-562 leukemia; 45.8 µM in the assay on SR leukemia; 74.1 µM in the assay with SW-620 colon. The TGI in the assay with MCF7 breast came out at 68.4 µM; in the assay on SF-539 CNS, 34.7 µM; in the assay with KM12 colon it was 39.4 µM; in the assay on MALME-3M melanoma it was 31.7 µM.

Regarding `CCOC(=O)C(CC#Cc1ccc(C#CCC(NC(C)=O)C(=O)OCC)cc1)NC(C)=O` (stereo not given), the TGI in the assay with HOP-62 NSCLC, in the assay on CCRF-CEM leukemia, in the assay with RXF 393 renal, in the assay on K-562 leukemia, in the assay on SR leukemia and in the assay on SW-620 colon was > 100 µM throughout. For the same molecule, the TGI in the assay on MCF7 breast, in the assay with SF-539 CNS, in the assay on KM12 colon and with MALME-3M melanoma was > 100 µM each time.

As to `O=C(CSc1n[nH]c(=O)[nH]c1=O)NNC(=O)c1cccc2nc3ccccc3nc12`, the TGI in the assay with HOP-62 NSCLC, with CCRF-CEM leukemia, in the assay with RXF 393 renal, in the assay with K-562 leukemia, with SR leukemia and with SW-620 colon was > 100 µM in each case. Moreover, the TGI in the assay with MCF7 breast was > 100 µM; in the assay on SF-539 CNS it was > 100 µM; in the assay on KM12 colon it was > 100 µM; in the assay on MALME-3M melanoma, 87.8 µM.

In the case of `CC1CC(=O)Nc2nc3ccccc3n21` (stereo not given), the TGI in the assay on HOP-62 NSCLC, in the assay on CCRF-CEM leukemia, in the assay on RXF 393 renal, in the assay with K-562 leukemia, in the assay on SR leukemia and with SW-620 colon was > 100 µM each time. Besides, the TGI with MCF7 breast, in the assay on SF-539 CNS, in the assay with KM12 colon and with MALME-3M melanoma was > 100 µM throughout.

With `NC(N)=NS(=O)(=O)c1ccc(NC(=O)c2ccc3nc4ccccc4c(Nc4ccc(S(=O)(=O)N=C(N)N)cc4)c3c2)cc1`, the TGI in the assay on HOP-62 NSCLC, in the assay on CCRF-CEM leukemia, with RXF 393 renal, in the assay on K-562 leukemia, with SR leukemia and in the assay with SW-620 colon was > 100 µM throughout. Besides, the TGI in the assay on MCF7 breast, in the assay with SF-539 CNS, in the assay on KM12 colon and in the assay with MALME-3M melanoma was > 100 µM each time.

For `Cn1c([O-])nc(-n2cc[n+](C)c2)cc1=O`, the TGI with HOP-62 NSCLC, in the assay on CCRF-CEM leukemia, in the assay with RXF 393 renal, in the assay on K-562 leukemia, with SR leukemia and in the assay on SW-620 colon was > 100 µM in each case. Besides, the TGI in the assay with MCF7 breast, with SF-539 CNS, in the assay with KM12 colon and in the assay on MALME-3M melanoma was > 100 µM each time.

For `Brc1ccc2c(-c3csc(-c4c[nH]c5cc(Br)ccc45)n3)c[nH]c2c1`, the TGI with HOP-62 NSCLC was > 100 µM; in the assay on CCRF-CEM leukemia it was > 64.1 µM; in the assay on RXF 393 renal, 77.1 µM; in the assay on K-562 leukemia, > 43.8 µM; with SR leukemia, > 41 µM; in the assay with SW-620 colon, 66.5 µM. Also, the TGI in the assay on MCF7 breast was > 100 µM; in the assay on SF-539 CNS, 63.2 µM; in the assay with KM12 colon, 25.1 µM; with MALME-3M melanoma, > 100 µM.
